In PMC12476087, “Loading of Dicarboxylatoplatinum(II)‐NHC Complexes in Bacterial Ghosts as an Advanced Development in Cancer Therapy” (Archiv Der Pharmazie, 2025):

Columns and labels:
Type in all cases: cell-based
A2780cis cells = assay: Annexin V/PI staining and FACS analysis, A2780cis; conditions: w/o BGs, 25 µM, 24 h; for late apoptosis/ necrosis: Annexin V positive/PI positive; for early apoptosis: percentage of cells (Annexin V positive/PI negative)
Method: Therefore, we aimed to evaluate the apoptosis and necrosis inducing potential of complexes 1–4 via a fluorescent‐activated cell sorting (FACS) analysis with Annexin V/propidium iodide (PI) staining in A2780wt and A2780cis cells. Cells were treated for 24 h with both the free and BG‐loaded forms of each compound at 25 µM. Carboplatin (50 µM) served as a reference.
To evaluate the mode of cell death, a FACS measurement after staining with Annexin V and PI was conducted. First, 0.3 × 10^6 A2780wt or A2780cis cells were seeded into 12‐well plates and were allowed to adhere for 24 h. The compounds were added at 25 µM, either diluted from a freshly prepared DMF stock solution (0.1% DMF) or freshly thawed when loaded in BGs. After 24 h of incubation, the cells were harvested with accutase and washed with PBS. The cells were then resuspended in 200 µL of PBS each and 1 µL of PI solution (Sigma‐Aldrich, Taufkirchen, Germany) and 1 µL of Annexin V‐FITC (MabTag GmbH, Friesoythe, Germany) were added to each sample. These were then incubated for 20 min at rt under light‐protected conditions and afterward transferred onto ice. The percentage of apoptotic cells was determined by analyzing Annexin V positive /PI negative cells using a BD LSRFortessa flow cytometer and BD FACSDiva software (both BD Biosciences, San Jose, CA, USA). The apoptosis analysis included the evaluation of early apoptosis (Annexin V positive/PI negative) and late apoptosis/necrosis (Annexin V positive /PI positive).

A2780wt cells [1] = assay: MTT assay, A2780wt cells; conditions: for IC50: MTT assay, 72 h exposure
Method: Carboplatin, a second‐generation platinum drug commonly used as part of standard first‐line chemotherapy for ovarian carcinoma, was examined as a reference compound due to its clinical relevance. Additionally, the nonmalignant bone marrow stromal cell line HS‐5 was included as a control to assess specificity of the complexes toward cancer cells.
Unloaded BGs (4 × 10^8 EcN or 2 × 10^8 Ec NM522, which is equivalent to the highest tested BG concentration) were tested as controls.
The exponentially growing cells were seeded at a density of 8 × 10^3 cells/well (A2780wt/cis) or 1 × 10^4 cells/well (HS‐5), respectively, into clear flat‐bottom 96‐well plates in triplicates. […] After another 72 h of incubation, the cellular metabolic activity was measured as an indicator of cell viability employing an MTT assay. Hereby, 20 µL of a 5 mg/mL MTT solution was added to each well, respectively. After 3 h of incubation, the medium was discarded, and the formazan crystals formed were dissolved in DMSO for 15 min with gentle shaking. […] The OD at 620 nm was subtracted from the OD at 595 nm. The OD of the medium was subtracted to exclude the unspecific staining caused by FCS‐containing medium. Cells treated with vehicle control (0.1% DMF) only were set at 100% metabolic activity. The IC50 values were calculated with Prism 8.0 (GraphPad Software Inc., Boston, MA, USA) using nonlinear regression. Significance was evaluated via a one sample t‐test performed with Prism 8.0.

[2] = test system: surface calreticulin on A2780cis cells; assay: Immunofluorescent surface calreticulin staining, A2780cis; conditions: w/o BGs, 25 µM, 24 h
Method: Oxaliplatin, a known metal‐based ICD inducer, was included for comparison.
A2780wt or A2780cis cells were seeded at a density of 1.2 × 10^5 on cover slips and allowed to adhere for 24 h. […] Subsequently, the cells were washed again three times with PBS and they were incubated after adding the secondary antibody (Alexa‐Fluor‐conjugated anti‐rabbit, 1:200), for 45 min at rt. Subsequently, the cells were washed again three times with PBS and they were mounted on slides with mounting medium. After letting them dry overnight, visualization was performed by spinning disk confocal microscopy. […] Acquired images were background subtracted, individual cells were manually segmented, and fluorescence intensity for the calreticulin staining was quantified with a FIJI software. Two repetitions of the experiment were performed, where at least 20 cells per condition were analyzed and the mean intensity of each sample was calculated, respectively.

A2780wt cells [3] = assay: Cellular platinum accumulation (HR CS AAS); conditions: free complex, 25 µM, 24 h
Method: Stock solutions of the platinum complexes in DMF were freshly prepared and the stocks for the loaded compounds were freshly thawed. […] Cell pellets were prepared by removing the medium, washing twice with PBS, and detaching the cells with accutase (GE Healthcare, Chicago, IL, USA). Subsequently, cells were pelleted by centrifugation (4°C, 380g, 3 min). Each pellet was twice washed with PBS and then stored at −20°C until further analyses.
Cellular accumulation was quantified by measuring the total platinum content using HR CS AAS. […] The resulting lysates were analyzed using AAS at the wavelength λ = 265.9450 nm with a high resolution continuous source (HR CS) spectrometer (contrAA 700; Analytik Jena, Jena, Germany). The ASpect CS software (version 2.3.1.0; Analytik Jena, Jena, Germany) was used to handle the spectrometer. The graphite furnace (GF) sub‐technique was used for this. In the latter, atomization takes place electrothermally in pyrolytically coated graphite tubes bearing an integrated platform (Analytik Jena, Jena, Germany). The GF program is outlined in Supporting Information S2: Table S8. The samples stored in polystyrene vials (0.5 mL; Gesellschaft für Analysentechnik, Salzwedel, Germany) were injected onto this platform employing an MPE 60 autosampler (Analytik Jena, Jena, Germany). As the purge and the protective gas served argon (Alphagaz 1, 99.999%, Air Liquide, Düsseldorf, Germany). The mean integrated absorbance of three injections was adduced during all measurements. […] As the degree of cellular accumulation is indicated as amount of compound (pmol) in the cell lysate relative to its protein mass (mg), the protein content of each sample was determined. Therefore, the method described by Bradford was used. […] Each 20 µL of either albumin standards or the cell lysates were pipetted into a 96‐well plate (Sarstedt, Nürmbrecht, Germany), followed by adding 200 µL of Bradford's reagent (Roti‐Nanoquant, Carl Roth, Karlsruhe, Germany; diluted 1:5 with ultrapure water). After incubating (5 min, rt), the absorbance (λ = 595 nm) was read with a microplate reader (Tecan Infinite M 1000 Pro, Männedorf, Switzerland). All calibration standards and lysates were measured in duplicates.

Compound	late apoptosis/ necrosis (A2780cis cells)	early apoptosis (A2780cis cells)	IC50 (A2780wt cells [1]) [µM]	x‐fold intensity of surface calreticulin compared to untreated cells [2] [x‐fold]	uptake into A2780wt cells (total cellular platinum content) (A2780wt cells [3]) [pmol/µg]	metabolic activity of A2780wt cells (A2780wt cells [1]; free (non‐loaded) compound, 25 µM, 72 h) [%]
CCN1[C]([Pt]([O]C(=O)C(Cl)Cl)([O]C(=O)C(Cl)Cl)[SH](C)(C)=O)N(CC)c2ccccc21 [Compound 3, (SP‐4‐2)‐Bis(dichloroacetato)(1,3‐diethylbenzimidazol‐2‐ylidene)(dimethylsulfoxide)platinum(II)]	10.6 ± 0.95	11.4 ± 1.82	58.9 ± 2.05	0.75 ± 0.28	1.17	–
(SP‐4‐2)‐Diacetatobis(1,3‐diethylbenzimidazol‐2‐ylidene)platinum(II) [Compound 2]	10.0 ± 1.77	6.37 ± 1.17	40.8 ± 2.34	1.02 ± 0.05	0.82	–
CCN1[C]([Pt]([O]C(C)=O)([O]C(C)=O)[SH](C)(C)=O)N(CC)c2ccccc21 [Compound 1, (SP‐4‐2)‐Diacetato(1,3‐diethylbenzimidazol‐2‐ylidene)(dimethylsulfoxide)platinum(II)]	15.0 ± 1.65	21.3 ± 1.18	31.1 ± 2.39	1.18 ± 0.37	1.1	85
(SP‐4‐2)‐Bis(dichloroacetato)bis(1,3‐diethylbenzimidazol‐2‐ylidene)platinum(II) [Compound 4]	18.1 ± 1.46	22.9 ± 1.67	37.9 ± 1.58	1.13 ± 0.36	1.87	–
